Reference: article PMC12703741, “Light-Activated Metal-Dependent Protein Degradation: A Heterobifunctional Ruthenium(II) Photosensitizer Targeting New Delhi Metallo-β-lactamase 1” (Journal of the American Chemical Society, 2025)
Several values for one entry are separate records, joined by “and”; a condition that tells them apart may be missing. Equal entries are not always repeated. Where two headings read alike, the source gives them in different places.

How the values were obtained:
[1] = tested on: E. coli NDM-1
Protocol: (§1) In parallel, a control set was incubated without compounds for 50 min, followed by incubation with 75 μM meropenem trihydrate for 10 min. Cells were then pelleted, washed, resuspended in water, lysed, and clarified before LC-MS analysis.
(§2) 1.12 LC-MS accumulation assay
(§3) 1.12.1 Bacterial Strains and Growth Conditions:
(§4) Accumulation assay was performed two E. coli K-12 MG1655 strains transfected with pSU18 vector containing NDM-1 expression or an empty vector control. Cell growth was performed in Luria-Bertani (LB) broth (NaCl 10g/L, K2HPO4 6.3 g/L, KH2PO4 1.8 g/L, sodium citrate […]
(§5) 1.12.2 Preparation of Accumulation Assay Samples for LC-MS Analysis:
(§6) Assay was adapted from the work of Geddes et al. and Widya et al.9–11 E. coli MG1655 pSU18 NDM-1 and pSU18 Empty were grown from single colonies at 37 °C with aeration, while shaking at 180 rpm for 18 hours. The overnight suspensions were subcultured (1:100) in fresh LB and incubated to yield an OD600 of 0.55-0.60. The were harvested and pelleted at 3500 × g for 15 minutes at 4 °C. The pellets were washed with Meuller -Hinton II (MHII) broth and pelleted again under the same conditions. The pellets were resuspended in a n adjusted volume of fresh MHII to achieve an OD 600 ≈ 10.0. Shielded from ambient light, cells were incubated with 320 μM of metal complex for 1 hour while shaking at 180 rpm. Separately, another set of cells was incubated under identical conditions without any added metal complex. Cells […]
(§7) incubated with metal complex were maintained incubating under the same conditions for an additional 10 minutes, while the second set of cells was incubated with 75 μM of meropenem trihydrate for 10 minutes. After treatment, 10 μL of each cell suspension was taken and dilution 1:10 PBSA for OD600 viability analysis. A 150 μL aliquot of each cell suspension was layered onto 150 μL of cold silicone oil mixture (1:9, v/v AR20:High temperature silicone oil) and centrifuged at 3500 × g for 1 hour at 4 °C. The aqu eous and oil supernatant were carefully aspirated to isolate the cell pellets, which were resuspended in 50 μL of water and transferred to a fresh microplate. For lysis, a 1:1 (v/v) mixture of acetonitrile and methanol was added to each sample, and the sam ples were freeze thawed at -80 °C for approximately 18 hours.
(§8) Thawed samples were clarified by two rounds of centrifugation at 3500 × g for 1 hour at 4 °C, […]
(§9) External calibration curves were prepared by mixing compound at increasing concentration with extracted cell lysate (prepared in parallel to analyte containing samples) in concentrations […]
(§10) nM were also prepared to assess quantitative accuracy. Samples were submitted to LCMS analysis as biological triplicate using a single calibration curve. […]
(§11) was spiked into each calibration and analyte sampl e as an internal standard.

[2] = tested on: E. coli empty
Protocol: as §1, §2, §3, §4, §5, §6, §7, §8, §9, §10, §11

[3] = molecular target: T1, NDM-1 (Klebsiella pneumoniae, UniProt C7C422); conditions: in words
T1 sequence (C7C422 31-270 limits assumed): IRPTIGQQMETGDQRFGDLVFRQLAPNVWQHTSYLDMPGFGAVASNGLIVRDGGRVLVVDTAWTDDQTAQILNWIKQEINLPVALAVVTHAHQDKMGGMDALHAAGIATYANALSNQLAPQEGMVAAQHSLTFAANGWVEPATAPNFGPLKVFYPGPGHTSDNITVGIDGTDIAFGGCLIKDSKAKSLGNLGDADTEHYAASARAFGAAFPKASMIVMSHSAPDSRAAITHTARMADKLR
Protocol: (§12) 1.4.1 Differential Scanning Fluorimetry (DSF)
(§13) DSF was performed using the Applied Biosystems QuantStudio 5 thermal cycler (Thermo
(§14) Fisher Scientific). Results were analysed and Tm determined with the Applied Biosystems
(§15) Protein Thermal Shift Software v1.4 and Tm values determined by the software. DSF was
(§16) conducted in sealed MicroAmp Optical 384-Well Reaction Plates (Thermo Fisher Scientific).
(§17) at a temperature ramp rate of 0.03 °C/s. For compound-protein interaction studies, a final
(§18) containing 5X SYPRO Orange (Thermo Fisher Scientific), 50 mM HEPES and 5%(v/v)
(§19) DMSO-d6. The final reaction volume was 20 µL per well. All DMSO compound stocks used
(§20) for DSF experiments were freshly prepared from solid stocks. All DSF measurements were
(§21) carried out in triplicate and the Tm reported is the mean value and the error is the standard
(§22) deviation. For all compounds tested, a no protein control run was included to see potential
(§23) changes in fluorescence resulting from a compound-dye interaction.

[4] = molecular target: T1, NDM-1; conditions: 450 nm, 20 J cm^-2
[5] = molecular target: T2, NDM-1 in E. coli NDM-1 (Klebsiella pneumoniae, UniProt C7C422); conditions: E. coli NDM-1, 450 nm, 60 J cm^-2
T2 sequence (C7C422 29-270 limits assumed): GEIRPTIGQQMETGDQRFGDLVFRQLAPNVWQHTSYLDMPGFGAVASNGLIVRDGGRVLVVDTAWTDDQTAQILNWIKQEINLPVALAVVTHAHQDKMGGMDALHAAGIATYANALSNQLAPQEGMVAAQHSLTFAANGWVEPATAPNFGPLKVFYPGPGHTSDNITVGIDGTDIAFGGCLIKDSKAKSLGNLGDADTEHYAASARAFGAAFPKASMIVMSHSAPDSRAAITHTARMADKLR
Protocol: (§24) shaking at 180 rpm for 18 hours. The overnight suspensions were subcultured (1:100) in fresh LB and incubated to yield an OD600 of 0.55-0.60. The were harvested and pelleted at 3500  g for 15 minutes at 4 °C. The pellets were washed with PBS and pelleted again under the same
(§25) conditions. The bacteria were then stored as pellets at 4 C until required for the assay and to
(§26) be used within 5 hours. To prepare the bacteria fo r the assay, a pellet was resuspended in an
(§27) adjusted volume of fresh PBS to achieve an OD600 ≈ 5.0 and then kept at 4 C for 1 hr before
(§28) being used. The bacteria were then diluted to OD600 ≈ 2.0 in fresh PBS and used immediately.
(§29) inhibitor control, and one row of Bacteria Buffer B (50 µL) which served as a no-bacteria
(§30) control (providing five rows in total). Bacteria stock (OD600 ≈ 2.0, 40 µL, final concentration
(§31) of bacteria in well = OD600 ≈ 0.8) was added to each well of the first four rows, the plate was
(§32) sealed, and the samples then pre-incubated for 60 min under either ‘dark’ or ‘light’ conditions
(§33) Under ‘dark’ conditions, the plate was left sealed in a
(§34) substrate in well = 100 µM) was conducted manually and then the plate immediately resealed
(§35) substrate had been completely consumed. Method conditions are as follows: cycle time = 100

[6] = tested on: E. coli NDM-1; remark: listed apart in the source
Protocol: based screening experiments were performed in biological triplicate, each replicate starting
from a new single colony inoculation. Statistical significance was determined using two-way
ANOVA followed by Sidak’s multiple comparison test, with a single pooled variance.
Concentration (MIC) assay
20% glycerol stocks of E. coli MG1655 pSU18 NDM-1 (E. coli NDM-1) and E. coli MG1655
pSU18 empty (E. coli empty) stored at -80 °C were used to streak nutrient agar plates. After
The MHBII culture growing both E. coli strains contained chloramphenicol
as an antibiotic resistance marker (2 µg/mL, equivalent to ¼ MICE. coli for chloramphenicol =
8 µg/mL). The resulting suspensions were each diluted 100 x (15 µL in 1.5 mL) in MHBII with
chloramphenicol (2 µg/mL), and the resultant suspensions were incubated to OD600 = 0.6-1.2
To generate the two-dimensional drug interaction matrix, four 96-well source plates were
prepared. In Source Plates A1-3, the three analytes were subjected to a two-fold serial dilution
across the rows (A to G), maintaining constant concentrations within each row and achieving
a vertical concentration gradient. In parallel, Source Plate B was prepared by diluting
meropenem in a two-fold series across the Columns (9 to 2), generating a horizontal
concentration gradient across the plate. Equal volumes (1 µL) from one of the source plates A
and source plate B were transferred into a 96-well assay plate to establish the checkerboard
layout with a 50X dilution into MHBII (50 μL total volume).
The prepared bacterial cells were diluted to OD600 = 0.01. Each prepared checkerboard plate
was then inoculated with 50 μL per well of bacterial culture in MHBII with ½ MIC of
chloramphenicol (100 μL total volume per well , final OD600 = 0.005). Control wells were
included to account for drug-free growth, sterility, and single-agent gradient exposures. Dark
For the light condition, the
OD600 was measured on a BMG Labtech CLARIOstar plate reader. The MIC is the first value
at which no growth is seen. All E. coli NDM-1 data were averaged from 3 biological replicates,

[7] = tested on: HCT116
[8] = tested on: HEK293T
[9] = tested on: HaCaT
[10] = tested on: HeLa
[11] = tested on: HepG2
[12] = tested on: RAW264.7; conditions: RAW
[13] = tested on: hTERT RPE-1
[14] = tested on: seven mammalian cell lines; conditions: panel of seven mammalian cell lines including HepG2
[15] = molecular target: T2, NDM-1 in E. coli NDM-1; assay: cell-based; conditions: E. coli NDM-1, nitrocefin
Protocol: as §24, §25, §26, §27, §28, §29, §30, §31, §32, §33, §34, §35

[16] = molecular target: T1, NDM-1; assay: biochemical
Protocol: as §12, §13, §14, §15, §16, §17, §18, §19, §20, §21, §22, §23

[17] = molecular target: T1, NDM-1; assay: biochemical; conditions: recombinant NDM-1, nitrocefin
[18] = Chromatographic LogD measurement; conditions: reversed-phase HPLC, Eclipse Plus C18 column, pH 7.4
Protocol: ChromLogD measurements were adapted from a previously reported procedure.3 The reversed
phase HPLC measurements were measured using an Agilent 1100 Series, equipped with an
Eclipse Plus C18 column 4.6 x 50 mm, using a gradient of 50 mM ammonium acetate/CH3CN
0 – 100% over 10 min. The mobile phase was adjusted to pH = 7.4 using concentrated sodium
The retention times (log k’) of seven commercially available compounds which cover the log
D range from -0.02 to 3.18 (theophylline, 5-phenyl-1H-tetrazole, benzimidazole, colchicine,
acetophenone, indole, propiophenone, butyrophenone, and benzophenone) were calculated
using the below equation, where tR is the retention time of the compound and t0 is the column
dead time, measured by injecting uracil (0.853 min).
The average retention times (tR) of two consecutive injections of sample were used to calculate
the log k’ values, which were then used to create the standard curve (Figure S1).

[19] = molecular target: HDAC1 (Homo sapiens, UniProt Q13547); assay: HDAC1 deacetylation assay (H3K9Ac, mass spectrometry); conditions: 100 µM compound, 3 hours, 37°C
Chain of HDAC1 (Q13547 whole entry, species assumed): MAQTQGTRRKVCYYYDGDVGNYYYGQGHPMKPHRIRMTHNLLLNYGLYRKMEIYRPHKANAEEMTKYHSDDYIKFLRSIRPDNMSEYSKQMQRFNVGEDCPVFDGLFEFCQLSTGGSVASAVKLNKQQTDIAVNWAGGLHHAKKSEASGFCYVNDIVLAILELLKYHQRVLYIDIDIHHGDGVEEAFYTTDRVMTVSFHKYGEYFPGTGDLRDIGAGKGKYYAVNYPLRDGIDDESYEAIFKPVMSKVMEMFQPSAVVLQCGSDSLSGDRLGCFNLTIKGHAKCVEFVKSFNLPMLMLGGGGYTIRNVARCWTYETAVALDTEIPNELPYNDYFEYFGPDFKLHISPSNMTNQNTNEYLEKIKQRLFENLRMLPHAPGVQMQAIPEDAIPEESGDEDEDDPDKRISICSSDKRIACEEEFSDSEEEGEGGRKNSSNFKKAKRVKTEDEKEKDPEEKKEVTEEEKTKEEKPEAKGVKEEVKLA
Protocol: 1.7.1 HDAC1 Assay conditions:
The results of the assay were analysed using HRMS.
HDAC1 was included (-HDAC1).

[20] = organic photosensitizers; cited from earlier work
[21] = read-out: Change in melting temperature (ΔT) of NDM-1

C[C@@H](O)[C@H]1C(=O)N2C(C(=O)O)=C(S[C@@H]3CN[C@H](C(=O)N(C)C)C3)[C@H](C)[C@H]12 [Meropenem, meropenem]
Accumulation ([1]; 75 μM, 10 min): not detectable | Accumulation ([2]; 75 μM, 10 min): 150 nM/OD600 | Accumulation ([2]; 75 μM, 10 min, listed as meropenem trihydrate): 0 nM/OD600

Cl.Cl.Nc1cccc(-c2cc(C(=O)O)nc(C(=O)O)c2)c1 [N1, 4-(3-amino-phenyl) dipicolinic acid]
Accumulation ([1]; 320 μM, 1 h): 731 nM/OD600 | Accumulation ([2]; 320 μM, 1 h): 609 nM/OD600 | Effect on melting temperature of NDM-1 [3]: destabilize the protein in a dose-dependent manner | Fold improvement in NDM-1 inhibition, light vs dark [4]: no enhancement of potency | Fold improvement in potency, light vs dark [5]: no change in potency | Fold change in Meropenem MIC ([6]; compound 5 μM, dark): 0 fold | Fold change in Meropenem MIC ([6]; compound 5 μM, light 450 nm, 60 J cm^-2): 0.66 fold | Fold change in Meropenem MIC ([6]; compound 10 μM, dark): 0 fold | Fold change in Meropenem MIC ([6]; compound 10 μM, light 450 nm, 60 J cm^-2): 0.66 fold | Fold change in Meropenem MIC ([6]; compound 20 μM, dark): 0 fold | Fold change in Meropenem MIC ([6]; compound 20 μM, light 450 nm, 60 J cm^-2): 1.3 fold | Fold change in Meropenem MIC ([6]; compound 40 μM, dark): 0.66 fold | Fold change in Meropenem MIC ([6]; compound 40 μM, light 450 nm, 60 J cm^-2): 2.0 fold | Fold change in Meropenem MIC ([6]; compound 80 μM, dark): 2.6 fold | Fold change in Meropenem MIC ([6]; compound 80 μM, light 450 nm, 60 J cm^-2): 6.6 fold | Fold change in Meropenem MIC ([6]; compound 160 μM, dark): 35 fold | Fold change in Meropenem MIC ([6]; compound 160 μM, light 450 nm, 60 J cm^-2): 43 fold | LD50 ([7]; HCT116, 24 h): > 50 µM | LD50 ([7]; HCT116, 48 h): > 50 µM | LD50 ([8]; 24 h): > 50 µM | LD50 ([8]; 48 h): > 50 µM | LD50 ([9]; 24 h): > 50 µM | LD50 ([9]; 48 h): > 50 µM | LD50 ([10]; 24 h): > 50 µM | LD50 ([10]; 48 h): > 50 µM | LD50 ([11]; HepG2, 24 h): > 50 µM | LD50 ([11]; HepG2, 48 h): > 50 µM | LD50 ([12]; 24 h): > 50 µM | LD50 ([12]; 48 h): > 50 µM | LD50 ([13]; RPE1, 24 h): > 50 µM | LD50 ([13]; RPE1, 48 h): > 50 µM | Cytotoxicity (no cytotoxicity up to) [14]: > 50 µM | IC50 ([15]; IC50(dark), dark): 13.2 µM and 13 µM | IC50 ([15]; IC50(light), light 450 nm, 60 J cm^-2): 11.1 µM | Kd [16]: 35 µM | ΔTm at 4 µM [16, 21]: -0.6 °C | ΔTm at 16 µM [16, 21]: -3.4 °C | ΔTm at 63 µM [16, 21]: -8.8 °C | IC50 ([17]; IC50(dark), dark): 3.2 ± 0.08 µM | IC50 ([17]; IC50(light), light 450 nm, 20 J cm^-2): 3.1 µM | chromatographic logD [18]: -1.32 | Inhibition of HDAC1 [19]: do not inhibit

porfimer sodium
Excited state lifetime [20]: 14 ns
